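GI50 = concentration required for 50% inhibition of growth. At the TGI there is no net growth.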
Key:
Assay in all cases: DTP human tumour cell line panel, 384-well format
[1] = system: 786-0 renal
[2] = system: A498 renal
[3] = system: A549 NSCLC
[4] = system: ACHN renal
[5] = system: BT-549 breast
[6] = system: CAKI-1 renal
[7] = system: CCRF-CEM leukemia
[8] = system: COLO 205 colon
[9] = system: DU-145 prostate
[10] = system: EKVX NSCLC
[11] = system: HCC-2998 colon
[12] = system: HCT-15 colon
[13] = system: HL-60(TB) leukemia
[14] = system: HOP-62 NSCLC
[15] = system: HOP-92 NSCLC
[16] = system: HS 578T breast
[17] = system: HT29 colon
[18] = system: IGROV1 ovarian
[19] = system: K-562 leukemia
[20] = system: KM12 colon
[21] = system: LOX IMVI melanoma
[22] = system: M14 melanoma
[23] = system: MALME-3M melanoma
[24] = system: MCF7 breast
[25] = system: MDA-MB-231 breast
[26] = system: MDA-MB-435 melanoma
[27] = system: MDA-MB-468 breast
[28] = system: MOLT-4 leukemia
[29] = system: NCI-H226 lung
[30] = system: NCI-H23 lung
[31] = system: NCI-H322M lung
[32] = system: NCI-H460 NSCLC
[33] = system: NCI-H522 lung
[34] = system: NCI/ADR-RES ovarian
[35] = system: OVCAR-3 ovarian
[36] = system: OVCAR-4 ovarian
[37] = system: OVCAR-5 ovarian
[38] = system: OVCAR-8 ovarian
[39] = system: PC-3 prostate
[40] = system: RPMI-8226 leukemia
[41] = system: RXF 393 renal
[42] = system: SF-268 CNS
[43] = system: SF-295 CNS
[44] = system: SF-539 CNS
[45] = system: SK-MEL-28 melanoma
[46] = system: SK-MEL-5 melanoma
[47] = system: SK-OV-3 ovarian
[48] = system: SN12C renal
[49] = system: SNB-19 CNS
[50] = system: SNB-75 CNS
[51] = system: SR leukemia
[52] = system: SW-620 colon
[53] = system: T-47D breast
[54] = system: TK-10 renal
[55] = system: U251 glioblastoma
[56] = system: UACC-257 melanoma
[57] = system: UACC-62 melanoma
[58] = system: UO-31 renal

CN(C[C@@H]1COCCO1)S(=O)(=O)Nc1ccc2ccc3ncc(-c4cnn(C)c4)cc3c(=O)c2c1
GI50 [1]: 5.58 µM
TGI [1]: > 100 µM
GI50 [2]: 0.808 µM
TGI [2]: 62.5 µM
GI50 [3]: 8.08 µM
TGI [3]: > 100 µM
GI50 [4]: 2.56 µM
TGI [4]: > 100 µM
GI50 [5]: 2.1 µM
TGI [5]: 45.5 µM
GI50 [6]: 1.89 µM
TGI [6]: > 100 µM
GI50 [7]: 3.12 µM
TGI [7]: 9.46 µM
GI50 [8]: 24.4 µM
TGI [8]: > 100 µM
GI50 [9]: 5.46 µM
TGI [9]: > 100 µM
GI50 [10]: 16.2 µM
TGI [10]: > 100 µM
GI50 [11]: 39.6 µM
TGI [11]: > 100 µM
GI50 [12]: 3.09 µM
TGI [12]: > 100 µM
GI50 [13]: 3.32 µM
TGI [13]: 21 µM
GI50 [14]: 5.14 µM
TGI [14]: > 100 µM
GI50 [15]: 2.08 µM
TGI [15]: 10.8 µM
GI50 [16]: 1.99 µM
TGI [16]: 8.1 µM
GI50 [17]: 14.4 µM
TGI [17]: > 100 µM
GI50 [18]: 2.13 µM
TGI [18]: 9 µM
GI50 [19]: 6.92 µM
TGI [19]: > 100 µM
GI50 [20]: 0.31 µM
TGI [20]: > 100 µM
GI50 [21]: 5.53 µM
TGI [21]: > 100 µM
GI50 [22]: 3.67 µM
TGI [22]: > 100 µM
GI50 [23]: 3.48 µM
TGI [23]: 73.6 µM
GI50 [24]: 5.9 µM
TGI [24]: > 100 µM
GI50 [25]: 8.45 µM
TGI [25]: > 100 µM
GI50 [26]: 21.6 µM
TGI [26]: > 100 µM
GI50 [27]: 1.63 µM
TGI [27]: 5.2 µM
GI50 [28]: 1.58 µM
TGI [28]: 3.03 µM
GI50 [29]: 1.77 µM
TGI [29]: > 100 µM
GI50 [30]: 0.588 µM
TGI [30]: 5.43 µM
GI50 [31]: 4.99 µM
TGI [31]: > 100 µM
GI50 [32]: 3.45 µM
TGI [32]: 62.1 µM
GI50 [33]: 2.68 µM
TGI [33]: 9.07 µM
GI50 [34]: 3.56 µM
TGI [34]: 25.5 µM
GI50 [35]: 12.3 µM
TGI [35]: > 100 µM
GI50 [36]: 3.34 µM
TGI [36]: 61 µM
GI50 [37]: 24 µM
TGI [37]: > 100 µM
GI50 [38]: 6.02 µM
TGI [38]: > 100 µM
GI50 [39]: 5.71 µM
TGI [39]: > 100 µM
GI50 [40]: 1.36 µM
TGI [40]: 5.21 µM
GI50 [41]: 5.6 µM
TGI [41]: > 100 µM
GI50 [42]: 5.68 µM
TGI [42]: > 100 µM
GI50 [43]: 1.12 µM
TGI [43]: 10.9 µM
GI50 [44]: 1.63 µM
TGI [44]: 15.2 µM
GI50 [45]: > 100 µM
TGI [45]: > 100 µM
GI50 [46]: 2.61 µM
TGI [46]: 19.2 µM
GI50 [47]: 1.45 µM
TGI [47]: 14.5 µM
GI50 [48]: 1.64 µM
TGI [48]: 8.8 µM
GI50 [49]: 27.2 µM
TGI [49]: > 100 µM
GI50 [50]: 2.18 µM
TGI [50]: 21.5 µM
GI50 [51]: 2.49 µM
TGI [51]: 7.48 µM
GI50 [52]: 7.12 µM
TGI [52]: > 100 µM
GI50 [53]: 3.5 µM
TGI [53]: 59.5 µM
GI50 [54]: 8.38 µM
TGI [54]: > 100 µM
GI50 [55]: 6.34 µM
TGI [55]: > 100 µM
GI50 [56]: > 100 µM
TGI [56]: > 100 µM
GI50 [57]: 3.36 µM
TGI [57]: > 100 µM
GI50 [58]: 8.88 µM
TGI [58]: > 100 µM

— PubChem BioAssay (NCI)
